Patent publication US7745457B2, “Meridamycin analogues for the treatment of neurodegenerative disorders” (Wyeth LLC, priority 2006, dated 2010)

The compounds below were run on cortical neuron cultures (assay: Neurite outgrowth in dissociated cortical neuron cultures). Conditions: Cortical neurone; embryonic day 15 rat cortical neurons, 72 hours treatment, TUJ-1 staining, Cellomics ArrayScan ENO algorithm; read-out: EC50 in cortical neuron assays (neurite outgrowth).
Type: cell-based
Method: Dissociated cortical neuron cultures were prepared as previously described (Pong et al., 2001). Briefly, embryonic day 15 rat fetuses were collected and dissected in ice-cold PBS. Dissected cortices were pooled together and transferred to an enzymatic dissociation medium containing papain. After 30 minutes, the tissue was mechanically triturated with a fire-polished glass Pasteur pipette. Single-cell suspensions in complete media were seeded on poly-L-ornithine and laminin coated 96-well plates. 24 hours later, cultures were treated with various concentrations of compound for 72 hours. The cultures were then fixed and stained with an anti-tubulin primary antibody (TUJ-1) and a fluorescent-tagged secondary antibody. Neurite outgrowth was determined by using the Enhanced Neurite Outgrowth (ENO) algorithm with the Cellomics ArrayScan and expressed as average neurite length or total neurite length per cell.

SMILES | EC50 [µM]
CC/C1=C\CC(/C(C)=C/C(C)C(C)O)OC(=O)C2CCCCN2C(=O)C(=O)C2(O)OC(CCC2C)CC2OC(C)(C)OC(CC3CC(OC(C)(C)O3)/C(C)=C/C(C)CC(C)C1O)C2C (stereo not drawn) [Example 1] | < 1
CC/C1=C\CC(/C(C)=C/C(C)C(C)OC(C)=O)OC(=O)C2CCCCN2C(=O)C(=O)C2(O)OC(CCC2C)CC(OC(C)=O)C(C)C(OC(C)=O)CC(OC(C)=O)CC(OC(C)=O)/C(C)=C/C(C)CC(C)C1OC(C)=O (stereo not drawn) [Example 2] | < 1
CC/C1=C\CC(/C(C)=C/C(C)C(C)OC(C)=O)OC(=O)C2CCCCN2C(=O)C(=O)C2(O)OC(CCC2C)CC(O)C(C)C(O)CC(OC(C)=O)CC(OC(C)=O)/C(C)=C/C(C)CC(C)C1OC(C)=O (stereo not drawn) [Example 3] | < 1
CC/C1=C\CC(/C(C)=C/C(C)C(C)O)OC(=O)C2CCCCN2C(=O)C(=O)C2(O)OC(CCC2C)CC(O)C(C)C(O)CC2CC(OC(C)(C)O2)/C(C)=C/C(C)CC(C)C1O (stereo not drawn) [Example 4] | < 1
CC/C1=C\CC(/C(C)=C/C(C)C(C)OC(C)=O)OC(=O)C2CCCCN2C(=O)C(=O)C2(O)OC(CCC2C)CC(O)C(C)C(OC(C)=O)CC(OC(C)=O)CC(OC(C)=O)/C(C)=C/C(C)CC(C)C1OC(C)=O (stereo not drawn) [Example 5] | < 1
CC/C1=C\CC(/C(C)=C/C(C)C(C)=O)OC(=O)C2CCCCN2C(=O)C(=O)C2(O)OC(CCC2C)CC2OC(C)(C)OC(CC3CC(OC(C)(C)O3)/C(C)=C/C(C)CC(C)C1=O)C2C (stereo not drawn) [Example 6] | < 1
